Experimental data as given in US11739122B2, “Glycopeptide antibiotic compounds, methods for producing the same, and uses thereof” (Academia Sinica, priority 2019, dated 2023).
In brackets after ≈: the same amount, converted by molar mass. Several values for one entry are separate records, joined by “and”; a condition that tells them apart may be missing. Equal values may be shown once. Where a name gives a salt, the structure may show the parent alone. Read-outs that look alike come from different tables or passages of the source.

Tests used:
A. baumannii ATCC 19606 [1] = experiment: MIC, broth microdilution; type: cell-based, Acinetobacter baumannii
Method: (§1) Determination of Minimal Inhibitory Concentration (MIC) for Vancomycin, Teicoplanin and Tei-Analogs Versus Selected Strains
(§2) MICs were determined by the broth microdilution method. Specifically, 12 Colonies of the test strain were picked up from 18-24 hour agar cultures and freshly inoculated into broth mediums until reaching the turbidity of a 0.5 McFarland standard. The broth culture was adjusted with broth medium to approximately 1×10^8 CFUmL^−1. […] The plates were incubated in 37° C. for 18-24 hours and monitored for the wells of the positive control, where cells grew, and the wells of the negative control, where wells should not grow. The MIC value was determined for the concentration of a test compound, at which there was no visible growth in the well.

A. baumannii ATCC 19606 [2] = experiment: In vivo efficacy, intranasal A. baumannii infection; set-up: species or system mice; conditions: BAL fluid, 24 hours post-inoculation; 24 and kanamycin 30, amikacin 15 mgkg^−1
Method: In Vivo Efficacy of r6,N-Acyl-Glc Tei Analogs
Female C57BL/6 mice (6 weeks of age; about 16-19 g, 3-5 mice per group) were intraperitoneally inoculated with 300 μL of MRSA ATCC 700787 suspension (about 10^7 CFUmL^−1). For intranasal A. baumannii (ATCC 19606) inoculation, mice were anesthetized, and inoculated intranasally with about 10^7-10^8 CFUmL^−1 A. baumannii in 50 μL of PBS. Treatments were started 1 hour after the bacterial challenge. The dose administration to mice was set as follows: teicoplanin (1) or r6,C8-Tei analog (14) 20 mgkg^−1 was intraperitoneally injected to MRSA-infected mice; amikacin (15 mgkg^−1), teicoplanin (1) (30 mgkg^−1), kanamycin (30 mgkg^−1) or r1,Me2-r6,guanidino-C8 analog (24) (30 mgkg^−1) was intraperitoneally injected to AB-infected mice. To assess bacteraemia, the test animals were sacrificed to collect 1 mL of peritoneal fluid (PF) for MRSA counting or the lungs were lavaged to collect 0.6 mL bronchoalveolar lavage (BAL) fluid for A. baumannii counting.
For AB (ATCC 19606), female C57BL/6 mice were first anesthetized by intraperitoneal injection of zoletil and then intranasally inoculated with 50 μL of bacteria in a PBS solution (about 10^7-10^8 CFUmL^−1). The treatment started 1 hour post-infection with a single dose of compound 24 (30 mgkg^−1), compound 1 (30 mgkg^−1), amikacin (15 mgkg^−1), or kanamycin (30 mgkg^−1), where saline/compound 1 and amikacin/kanamycin respectively served as negative and positive controls. To assess the density of bacteraemia, the lungs of mice were lavaged to collect 0.6 mL bronchoalveolar lavage (BAL) fluid from each mouse at 24 hours post-inoculation. For saline/compound 1 treated controls, the bacterial load was counted (about 4 log CFUmL^−1, FIG. 4B), where the bacterial load was reduced by 0.5 or 1 log CFUmL^−1 with the treatment of amikacin/kanamycin or compound 24, respectively.

A. baumannii ATCC 19606 [3] = experiment: Thin-section TEM, cell wall morphology; type: cell-based, Acinetobacter baumannii; conditions: AB ATCC 19606; 24 50 μM, colistin 3.2 μM, combination 25 μM each
Method: Thin-Section Transmission Electron Microscopy (TEM)
An overnight cultured MRSA ATCC 700787, VRE ATCC 700221 or A. baumannii ATCC 19606 was individually sub-cultured into a fresh medium. Bacteria at the exponential phase were treated with a given test compound at a concentration of 4×MIC for 1-4 hour at 37° C. and followed by wash and resuspension in PBS. Bacteria cells for the TEM analysis were prepared as follows: Cells were fixed with 2.5% glutaraldehyde for 30 minutes. After the fixation, cells were washed twice with PBS and fixed with 1% osmium tetraoxide for another 30 minutes. All the buffer was removed with distilled water. The cells were then stained with 1% uranyl acetate and dehydrated with a graded ethanol solution. Cells were embedded in resin. Finally, each sample was cut into thin slices of approximately 90 nm with a glass knife and stained with uranyl acetate. The images of bacterial morphological were recorded.

MRSA ATCC 43300 = experiment: MIC, broth microdilution; type: cell-based, Staphylococcus aureus; conditions: MRSA ATCC 43300
Method: as §1, §2

MRSA ATCC 700698 hVISA = experiment: MIC, broth microdilution; type: cell-based, Staphylococcus aureus; conditions: MRSA ATCC 700698 hVISA
Method: as §1, §2

MRSA ATCC 700787 VRSA = experiment: MIC, broth microdilution; type: cell-based, Staphylococcus aureus; conditions: MRSA ATCC 700787 VRSA
Method: as §1, §2

MRSA ATCC 700789 VRSA = experiment: MIC, broth microdilution; type: cell-based, Staphylococcus aureus; conditions: MRSA ATCC 700789 VRSA
Method: as §1, §2

MRSA ATCC BAA-38 = experiment: MIC, broth microdilution; type: cell-based, Staphylococcus aureus; conditions: MRSA ATCC BAA-38
Method: as §1, §2

MRSA ATCC BAA-39 = experiment: MIC, broth microdilution; type: cell-based, Staphylococcus aureus; conditions: MRSA ATCC BAA-39
Method: as §1, §2

MRSA ATCC BAA-44 = experiment: MIC, broth microdilution; type: cell-based, Staphylococcus aureus; conditions: MRSA ATCC BAA-44
Method: as §1, §2

S. aureus ATCC 29213 = experiment: MIC, broth microdilution; type: cell-based, Staphylococcus aureus; conditions: SA ATCC 29213
Method: as §1, §2

E. faecalis ATCC 29302 = experiment: MIC, broth microdilution; type: cell-based; conditions: EF ATCC 29302
Method: as §1, §2

VRE ATCC 700221 (vanA) = experiment: MIC, broth microdilution; type: cell-based, enterococci; conditions: VRE ATCC 700221 (vanA)
Method: as §1, §2

VRE ATCC 700425 (vanC) = experiment: MIC, broth microdilution; type: cell-based, enterococci; conditions: VRE ATCC 700425 (vanC)
Method: as §1, §2

VRE ATCC 700802 (vanB) = experiment: MIC, broth microdilution; type: cell-based, enterococci; conditions: VRE ATCC 700802 (vanB)
Method: as §1, §2

HEK293T cells = experiment: Alamar Blue cell viability assay; type: cell-based, human; conditions: up to 100 μgmL^−1; 2 and 24 h
Method: The Alamar Blue (AB) assay, which includes a redox indicator that changes color or emits fluorescence in response to a metabolic activity, was used to assess in vitro mammalian cell cytotoxicity (human embryonic kidney cells (HEK293T)) upon an antibiotic treatment. 2×10^5 cellsmL^−1 were allowed to adhere on 96-well plates overnight at 37° C. in a humidified incubator (5% CO2 atmosphere). Tested compounds were dissolved in 50% DMSO to make 1 mgmL^−1 of a stock solution. Cells were separately aliquoted with 5 μL of a test compound (final concentration: 100 μgmL^−1) and incubated. PBS and 50% DMSO, which was used to dissolve compounds, served as a control. Cell viability was triplicated and assessed at 2 and 24 hour time points for each test compound, on which the measurements followed the manufacturer protocol.

Q: For NC[C@H]1O[C@H](O[C@H]2[C@H](O)[C@@H](O[C@H]3O[C@H](CO)[C@@H](O)[C@H](N)[C@H]3O)[C@H](N)C[C@@H]2N)[C@H](O)[C@@H](O)[C@@H]1O [kanamycin sulfate, reference compound], which MIC (A. baumannii ATCC 19606 [1]; Acinetobacter baumannii, ATCC19606) is on record?
A: 25 µM and 14.6 µg/mL

Q: What about the MIC (A. baumannii ATCC 19606 [1]; Acinetobacter baumannii, ATCC19606, read-out: MIC on AB) of the same compound?
A: 14.6 µg/mL

Q: What about the “bacterial load reduced by” value (A. baumannii ATCC 19606 [2]) of the same compound?
A: 0.5 log CFUmL^−1

Q: Which “bacterial load reduced by” value (A. baumannii ATCC 19606 [2]) does the source give for NCC[C@H](O)C(=O)N[C@@H]1C[C@H](N)[C@@H](O[C@H]2O[C@H](CN)[C@@H](O)[C@H](O)[C@H]2O)[C@H](O)[C@H]1O[C@H]1O[C@H](CO)[C@@H](O)[C@H](N)[C@H]1O [amikacin] here?
A: 0.5 log CFUmL^−1

Q: For colistin sulfate [reference compound], which “MIC on AB” value (A. baumannii ATCC 19606 [1]; A. baumannii ATCC 19606) is on record?
A: 1.98 µg/mL

Q: And the MIC (A. baumannii ATCC 19606 [1]; A. baumannii ATCC 19606, Table 3, first figure of cell)?
A: 1.56 µM

Q: And the MIC (A. baumannii ATCC 19606 [1]; A. baumannii ATCC 19606, Table 3, second figure of cell)?
A: 1.98 µg/mL

Q: And the “cell membrane/cell wall morphology by TEM” value (A. baumannii ATCC 19606 [3])?
A: intactness of cell membrane/cell wall was severely damaged

Q: For N[C@H]1C(=O)N[C@@H]2Cc3ccc(c(Cl)c3)Oc3cc4cc(c3O)Oc3ccc(cc3Cl)[C@@H](O[C@@H]3O[C@H](CO)[C@@H](O)[C@H](O)[C@H]3NC(=O)CCCCc3ccc(F)cc3)[C@@H]3NC(=O)[C@H](NC(=O)[C@@H]4NC(=O)[C@@H](NC2=O)c2cc(O)cc(c2)Oc2cc1ccc2O)c1ccc(O)c(c1)-c1c(O)cc(O)cc1[C@@H](C(=O)O)NC3=O [Compound 18], which MIC (MRSA ATCC 43300) is on record?
A: 0.031 µg/mL (≈ 0.0202 µM)

Q: What about the MIC (MRSA ATCC 700698 hVISA) of the same compound?
A: 0.016 µg/mL (≈ 0.0104 µM)

Q: What about the MIC (MRSA ATCC 700787 VRSA) of the same compound?
A: 0.125 µg/mL (≈ 0.0813 µM)

Q: And the MIC (MRSA ATCC 700789 VRSA)?
A: 0.5 µg/mL (≈ 0.325 µM)

Q: And the MIC (MRSA ATCC BAA-38)?
A: 0.016 µg/mL (≈ 0.0104 µM)

Q: And the MIC (MRSA ATCC BAA-39)?
A: 0.063 µg/mL (≈ 0.041 µM)

Q: And the MIC (MRSA ATCC BAA-44)?
A: 0.016 µg/mL (≈ 0.0104 µM)

Q: What about the MIC (S. aureus ATCC 29213) of the same compound?
A: 0.063 µg/mL (≈ 0.041 µM)

Q: What about the MIC (E. faecalis ATCC 29302) of the same compound?
A: 0.25 µg/mL (≈ 0.163 µM)

Q: What about the MIC (VRE ATCC 700221 (vanA)) of the same compound?
A: >16 µg/mL

Q: And the MIC (VRE ATCC 700425 (vanC))?
A: 1 µg/mL (≈ 0.65 µM)

Q: And the MIC (VRE ATCC 700802 (vanB))?
A: 0.25 µg/mL (≈ 0.163 µM)

Q: And the “cytotoxicity to HEK293T cells” value (HEK293T cells)?
A: did not exhibit any observable toxicity
